Measurements published in PubChem BioAssay (NCI).
Where “and” joins values, the source holds several entries; their conditions need not be identical. Equal values may be shown once.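 96-well plates; 48 h exposure; 5 concentrations. Endpoints by linear interpolation between flanking doses. Not reached: highest tested concentration assigned. GI50 = concentration required for 50% inhibition of growth. TGI: concentration producing complete growth inhibition.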 Where a SMILES comes first, the peptide text is derived from it. Bridges are numbered along the chain shown (N, C = ends). [ ]: non-standard residue; d: D form. ξ: configuration not given here. ξThr(3R) = C[C@@H](O)C(N)C(=O)O; S5 = C=CCCC[C@](C)(N)C(=O)O

How the values were obtained:
Assay in all cases: NCI-60 cell line screen, 48 h
[1] = tested on: RXF 393 renal
[2] = tested on: HOP-62 NSCLC
[3] = tested on: SN12C renal
[4] = tested on: NCI-H460 lung
[5] = tested on: SF-268 CNS
[6] = tested on: KM20L2 colon
[7] = tested on: NCI-H226 lung
[8] = tested on: HCT-15 colon
[9] = tested on: HT29 colon
[10] = tested on: DMS 273 small cell lung

SMILES	TGI [1]	TGI [2]	TGI [3]	TGI [4]	TGI [5]	TGI [6] [µM]	TGI [7]	TGI [8]	GI50 [1] [µM]	GI50 [2] [µM]	GI50 [9] [µM]	TGI [9]	GI50 [3] [µM]	GI50 [4] [µM]	GI50 [5] [µM]	GI50 [7] [µM]	GI50 [8] [µM]	TGI [10]
CC(=O)Nc1ccc(/C=C2\N=C(c3ccccc3)OC2=O)cc1	> 100 µM	> 100 µM	> 100 µM	> 100 µM	> 100 µM	> 100	> 100 µM	> 100 µM	–	–	–	–	–	–	–	–	–	–
O=C(Nc1cccc(-n2cc(-c3ccncc3)c(-c3ccc(O)c(Cl)c3)n2)c1)c1cc(C(F)(F)F)cc(C(F)(F)F)c1	9.1 µM	> 50 µM	> 50 µM	> 50 µM	> 50 µM	–	> 50 µM	> 50 µM	1.25	17.5	5.15	31.4 µM	7.04	1.9	7.26	10.3	2.39	–
COc1ccc(-c2[nH]nc(N)c2-c2cc(OC)c3c(c2)OCO3)cc1	16.1 µM	> 100 µM	> 100 µM	> 100 µM	> 100 µM	–	> 100 µM	> 100 µM	3.63	5.65	3.65	25.7 µM	5.01	3.38	4.74	8.36	3.69	–
O=C(N/C(=C\c1ccccc1Cl)c1nc2ccccc2[nH]1)c1ccccc1	91.5 µM	–	61.5 µM	–	> 100 µM	> 100	–	> 100 µM	–	–	–	87.2 µM	–	–	–	–	–	–
C[C@@H](NC(=O)c1ncnc(N)c1Cl)c1ncc(C(=O)Nc2cc(C(F)(F)F)c(Cl)cn2)s1	68.7 µM	84.8 µM	> 93.7 µM	79.9 µM	> 71.6 µM	–	74.3 µM	> 100 µM	24.2	24.3	1.07	46.2 µM	19.9	20.4	26.8	15.4	21.9	–
CCN(CC)CCC(CNc1ccnc2cc(Cl)ccc12)c1ccccc1 (configuration not stated)	5.65 µM	48.9 µM	> 100 µM	29 µM	41 µM	–	41.1 µM	20.8 µM	2.3	12.1	0.493	10.4 µM	16.3	8.36	7.85	11.3	3.51	–
O=C1C=CC(=Nc2cccc3c(N=C4C=CC(=O)O4)cccc23)O1	50 µM	> 100 µM	77.9 µM	> 100 µM	> 100 µM	–	> 100 µM	> 100 µM	–	–	–	> 100 µM	–	–	–	–	–	–
CCOc1ccc(OCC)c([P+](c2ccccc2)(c2ccccc2)c2ccccc2)c1	15.7 µM	3.92 µM	5.61 µM	11.6 µM	24.4 µM	4.13	3.24 µM	–	–	–	–	12.9 µM	–	–	–	–	–	1.21 µM
COc1ccc2nc3cc([N+](=O)[O-])ccc3c(NNc3ccccc3)c2c1	27.6 µM and > 100 µM	29.7 µM and > 100 µM	71.1 µM and > 74.9 µM	25.2 µM and 42.3 µM	30.8 µM and > 100 µM	–	18.1 µM and 7.66 µM	> 100 µM and 67.2 µM	11.8	13.1	–	29.9 µM and 39.2 µM	18.9	–	7.35	1.63	12	–
CCOC(=O)c1c(NC(=O)c2ccccc2)sc2c3c(ccc12)OCN(C)C3	3.2 µM	3.82 µM	3.22 µM	3.53 µM	3.59 µM	–	4.14 µM	2.51 µM	1.57	1.77	2	4.25 µM	1.63	1.87	1.77	1.9	1.2	–
CC(=O)N[C@H](C(=O)N[C@@H](CCCNC(=N)N)C(=O)N[C@@H](CCCCN)C(=O)N[C@@H](CCCNC(=N)N)C(=O)NC(C(=O)N[C@@H](CC(C)C)C(=O)N[C@@H](CCCNC(=N)N)C(=O)N[C@@]1(C)CCC/C=C\CCC[C@@](C)(C(=O)N[C@@H](CCCNC(=N)N)C(=O)N[C@@H](CCC(=O)O)C(=O)N[C@@H](CC(C)C)C(=O)N[C@H](C(=O)N[C@@H](CCC(=O)O)C(N)=O)C(C)C)NC(=O)[C@H](CCC(N)=O)NC(=O)[C@H](CC(C)C)NC(=O)[C@H](CC(C)C)NC1=O)[C@@H](C)O)C(C)C (stereo partly drawn) (Ac-VRKR[ξThr(3R)]LR[S5]LLQ[S5]RELVE-NH2; staple (Z) 8-12)	12.1 µM	11.8 µM	10.7 µM	6.84 µM	8.62 µM	–	14.8 µM	14.7 µM	2.7	3.24	7.56	16.4 µM	3.33	1.76	2.1	5.31	6.22	–
CC(=O)OC(C)(C)/C=C/C(=O)[C@](C)(O)[C@H]1[C@H](O)C[C@@]2(C)[C@@H]3CC=C4[C@@H](C=C(O)C(=O)C4(C)C)[C@]3(C)C(=O)C[C@]12C	46.1 nM [middle of 4 runs]	–	3.34 µM and 1.52 µM and 0.938 µM	1.81 µM and 1.68 µM and 1.49 µM	–	–	93.7 nM [middle of 4 runs]	–	–	–	–	–	–	–	–	–	–	0.203 µM and 0.0544 µM and 0.1 µM
COc1ccc(C(=O)O[C@H]2[C@H](O[C@H]3[C@@H](O)COC(O[C@H]4C[C@H]5[C@@H]6CC=C7C[C@@H](O)CC[C@]7(C)[C@H]6CC[C@]5(C)[C@H]4[C@H](C)C(=O)CCC(C)C)[C@@H]3OC(C)=O)OC[C@@H](O)[C@@H]2O)c(C)c1 (some centres not stated)	< 0.01 µM	7.51 µM	29.7 µM	3.23 µM	3.4 µM	–	30.6 µM	2.05 µM	< 0.01	< 0.01	0.0712	21.6 µM	11.7	< 0.01	< 0.01	0.0423	0.0332	–
COc1cccc2nc3ccccc3nc12	> 100 µM	> 100 µM	> 100 µM	> 100 µM	> 100 µM	–	> 100 µM	> 100 µM	–	–	–	> 100 µM	–	–	–	–	–	–
O=C(Nc1ccccc1C(F)(F)F)c1ccc(NC2=C(Cl)C(=O)N(Cc3ccccc3)C2=O)cc1	37.7 µM	43.1 µM	> 100 µM	> 100 µM	94.6 µM	–	92.2 µM	> 100 µM	13.8	21.5	> 100	> 100 µM	18.6	33.2	24.3	13.6	4.19	–
CCN(CC)c1ccc2nc3c4ccccc4c(=O)cc-3n(-c3ccccc3)c2c1	5.83 µM	3.6 µM	40.2 µM	6.46 µM	12.9 µM	–	5.81 µM	49.3 µM	1.94	1.08	0.902	8.42 µM	2.72	2.26	2.85	2.04	2.1	–
